The record followed here is patent US9097667B2, “Fluorescent compounds” (BIOTIUM, INC., priority 2007, dated 2015).

The first data set in a line: Total fluorescence vs. degree of labeling (DOL) of protein dye-conjugates. In kind it is physicochemical. The note with it: goat anti-mouse IgG conjugates, excited at 350 nm, compared to AMCA; FIG. 7. On the procedure:
Fluorescent conjugates of goat anti-mouse IgG (GAM), goat anti-rabbit IgG (GAR), and streptavidin were prepared from the respective proteins and a reactive dye, following published procedures (U.S. Pat. No. 6,974,873; Haugland et al., Meth. Mol. Biol. 45, 205 (1995); Haugland et al., Meth. Mol. Biol. 45, 223 (1995); Haugland et al., Meth. Mol. Biol. 45, 235 (1995); Haugland et al., Current Protocols in Cell Biology, 16.5.1-16.5.22 (2000)). Briefly, an antibody or streptavidin at 1 mg/mL in […] pH 8.5 sodium bicarbonate buffer was mixed with one of the reactive dye at various ratio of dye molecules/protein molecule. After incubating for about an hour at room temperature, the reaction mixture was separated by gel filtration using Sephadex G-25 equilibrated with PBS (pH 7.4). The various dye molecules/protein ratios used in the labeling reactions produced protein conjugates with different degree of dye labeling (DOL) as listed in Table 7 below for each dye/protein pair.
The fluorescence of the conjugates was measured using a JACSO fluorescence spectrophotometer and was then plotted against the DOL to give FIGS. 4-7.
A set of goat anti-mouse IgG conjugates were prepared by labeling a portion of goat anti-mouse IgG with one of three near IR dyes. […]
As to `COCCOCCOCCOCCOCCOCCOCCOCCOCCOCCOCCN(CCCCCC(=O)ON1C(=O)CCC1=O)C(=O)Cc1c(C)c2ccc(N)cc2oc1=O` [Compound No. 92], the “total fluorescence vs. degree of labeling (DOL)” value was “higher fluorescence quantum yield over a wide of degree of labeling and has less fluorescence quenching when the antibody is at higher degrees of labeling”.

The next data set is described as follows: Absorption and emission spectra of the dyes (λabs/λem in H2O). In kind it is physicochemical. The note with it: Table 5, coumarin-based fluorescent groups. From the text:
For compounds of Formula II, it is well known to a person of skill in the art to select the bridging unit Y, in combination with a specific embodiment of a moiety of Formula F, in combination with a specific embodiment of moiety Y, and in combination with specific substituents such that the maximal fluorescence excitation wavelength of the compound ranges from about 350 to about 1200 nm. Standard analysis well known in the art is used to obtain the absorption and emission spectra of the dyes in order to ascertain the absorption maximal wavelength and the maximal fluorescence emission wavelength. Any combinations of the above described groups may be used to form a compound of the invention with a maximal fluorescence excitation wavelength of about 550 nm, about 560 nm, about 570 nm, about 580 nm, about 590 nm, about 600 nm, about 610 nm, about 620 nm, about 615 nm, about 620 nm, about 625 nm, about 630 nm, about 635 nm, about 640 nm, about 650 nm, about 655 nm, about 660 nm, about 665 nm, about 670 nm, about 675 nm, about 680 nm, about 685 nm, about 690 nm, about 695 nm, about 700 nm, about 705 nm, about 710 nm, about 715 nm, about 720 nm, about 725 nm, about 730 nm, about 735 nm, about 740 nm, about 745 nm, about 750 nm, about 755 nm, about 760 nm, about 765 nm, about 770 nm, about 775 nm, about 780 nm, about 790 nm, about 800 nm, about 810 nm, about 820 nm, about 830 nm, about 840 nm, about 850 nm, about 860 nm, about 870 nm, about 880 nm, about 890 nm, about 900 nm, about 910 nm, about 920 nm, about 930 nm, about 940 nm, about 950 nm, about 960 nm, about 970 nm, about 980 nm, about 990 nm, about 1000 nm, about 1020 nm, about 1040 nm, about 1060 nm, about 1080 nm, about 1100 nm, about 1120 nm, about 1140 nm, about 1160 nm, about 1180 nm, or about 1200 nm. The moieties described above may be used in any combination. The maximal fluorescence excitation wavelength of the dye is typically the wavelength at which the dye has a maximal absorption or maximal optical density, which excites the dye to fluoresce. In some embodiments, the compound of Formula II has an absorption maximal wavelength at >670 nm. In one embodiment, the absorption maximal wavelength is at >700 nm. According to another embodiment, the absorption maximal wavelength is at >800 nm.
Regarding `COCCOCCOCCOCCOCCOCCOCCOCCOCCOCCOCCOCCN(CCCCCC(=O)ON1C(=O)CCC1=O)C(=O)Cc1c(C)c2cc(S(=O)(=O)O)c(N)cc2oc1=O` [Compound No. 51], the λabs stood at 346 nm and the λcm is recorded as 442 nm.

As to `COCCOCCOCCOCCOCCOCCOCCOCCOCCOCCOCCOCCN(CCCCCC(=O)ON1C(=O)CCC1=O)C(=O)c1cc2cc(F)c(O)c(F)c2oc1=O` [Compound No. 52], the λabs is given as 416 nm and the λcm is listed as 465 nm. The matching figures for `C=C(Cc1c(C)c2ccc(N)cc2oc1=O)N(CCCCCC(=O)ON1C(=O)CCC1=O)CCOCCOCCOCCOCCOCCOCCOCCOCCOCCOCCOCCOC` [compound 50]: 353 nm and 442 nm. As for `COCCOCCOCCOCCOCCOCCOCCOCCOCCOCCOCCOCCOCCOCCOCCOCCOCCOCCOCCOCCOCCOCCOCCOCCN(CCCCCC(=O)ON1C(=O)CCC1=O)C(=O)CCCCCN1c2cc3oc(=O)cc(C(F)(F)F)c3cc2C(CS(=O)(=O)O)=CC1(C)C` [compound 53], the λabs was 430 nm and the λcm came to 545 nm.
